Read-outs that look alike come from different tables or passages of the source. Peptide text beside a SMILES is read from it.
From the text: All subjects who met eligibility criteria were confined to the clinical research unit from […] through Day 3. At admission, physical examination, vital signs, 12 lead ECG and weight were obtained, medical and medication history were updated if necessary, safety blood tests (hematology and chemistry), urinalysis, urine drug screen and an alcohol breath test were repeated and a urine pregnancy test was done for women of childbearing potential.
At each dose level, there were 2 sentinel subjects, (1 active, 1 placebo), who were dosed at least 48 hours in advance of the other subjects in their respective group. Following review of safety data, including physical examination, vital signs, and review of adverse events from the first 2 subjects, enrolment in the cohort continued.
A 12-lead ECG was performed on Day 1, within 60 minutes of infusion start (in triplicate), mid-way through the infusion, at the completion of the infusion, 30 minutes after completion of the infusion and at various timepoints following the end of the infusion.
Vital signs were recorded within 60 minutes pre-dose, at the mid-point of the infusion and post dose vitals were assessed at completion of the infusion, 0.5, 1, 2, 3, 4, 6, 9, 12, 24 and 48 hours post dose, after at least 3 minutes of rest in supine position.
Subjects returned to the study center 7 days after dosing, for the termination visit. A full physical examination, vital signs and weight were obtained, concomitant medications were updated if necessary, safety blood specimens (haematology and chemistry, PT and aPTT) and urine were collected for urinalysis and urine drug screening. A serum pregnancy test was done for women of childbearing potential and a 12-lead ECG was performed.
In this study dose limiting toxicity (DLT) was defined as any drug related ≥Grade 3 AEs occurring despite optimal therapeutic interventions (which included but were not limited to allergic/hypersensitivity reactions, dermatological reactions/infusion site reactions, haematological toxicities such as neutropenia, thrombocytopenia and anaemia and clinical chemistry abnormalities) experienced up to Day 7 (Termination Visit).
(§1) All subjects who received any amount of study drug were included in the safety analysis (Safety population).
The study was a double blinded, randomized, placebo-controlled study. The placebo administered was 0.9% sodium chloride.
On Day 1 (day of dosing), subjects were randomly assigned either peptide IV or Placebo IV. At each dose level, there were 2 sentinel subjects, (1 active, 1 placebo), who were dosed at least 48 hours in advance of the other subjects in their respective group. Following review of safety data, including physical examination, vital signs, and review of adverse events from the first 2 subjects, enrolment in the cohort continued. All subjects who met eligibility criteria were confined to the clinical research unit from Day −2 through Day 3. At admission, physical examination, vital signs, 12 lead ECG and weight were obtained, medical and medication history were updated if necessary, safety blood tests (hematology and chemistry), urinalysis, urine drug screen and an alcohol breath test were repeated and a urine pregnancy test was done for women of childbearing potential.
as §1

[1] = 0.05 mg/kg IV 1 hr infusion (N = 6)
[2] = 0.5 mg/kg IV 2 hr infusion (N = 6)
[3] = Cohort 1: 0.05 mg/kg IV 1-hr infusion (N = 6)

CC(C)[C@H](NC(=O)[C@H](Cc1c[nH]c2ccccc12)NC(=O)[C@H](CCCNC(=N)N)NC(=O)[C@H](CCCNC(=N)N)NC(=O)[C@@H](NC(=O)[C@@H](NC(=O)[C@H](CCCNC(=N)N)NC(=O)[C@@H](NC(=O)[C@@H](NC(=O)[C@H](CCCNC(=N)N)NC(=O)[C@H](CCCNC(=N)N)NC(=O)[C@H](Cc1c[nH]c2ccccc12)NC(=O)[C@@H](NC(=O)[C@H](CCCNC(=N)N)NC(=O)[C@H](CCCNC(=N)N)NC(=O)[C@@H](NC(=O)[C@H](CCCNC(=N)N)NC(=O)[C@H](CCCNC(=N)N)NC(=O)[C@@H](NC(=O)[C@H](Cc1c[nH]c2ccccc12)NC(=O)[C@H](CCCNC(=N)N)NC(=O)[C@@H](N)CCCNC(=N)N)C(C)C)C(C)C)C(C)C)C(C)C)C(C)C)C(C)C)C(C)C)C(=O)N[C@@H](CCCNC(=N)N)C(=O)N[C@@H](CCCNC(=N)N)C(N)=O [SEQ ID NO: 1] (H-RRWVRRVRRVWRRVVRVVRRWVRR-NH2)
5: TEAE Participants with at least one [?], n participants [1] | TEAE Severity Grade 1, participants n [1]
83.3%: TEAE Severity Grade 1, participants % [1]
safe and well tolerated: overall safety and tolerability (0.05 to 0.5 mg/kg, drug concentration below […] and rate of infusion below 25 mg/hr)
0: Related TEAE Abdominal [?], n participants [1] | Related TEAE Blood and lymphatic system disorders, n participants [1] | Related TEAE Co[?], n participants [1] | Related TEAE D[?] (r32, GI SOC), n participants [1] | Related TEAE F[?], n participants [1] | Related TEAE Gastrointestinal disorders, n participants [1] | Related TEAE In[?] related reaction, n participants [1] | Related TEAE Infusion [?] reaction, n participants [1] | Related TEAE Injury, poi[?] procedural complications, n participants [1] | Related TEAE M[?] and connective tissure disorders, n participants [1] | Related TEAE Myalgia, n participants [1] | Related TEAE Nervous system disorders, n participants [1] | Related TEAE O[?] (r25, vascular SOC), n participants [1] | Related TEAE O[?] (r38, respiratory SOC), n participants [1] | Related TEAE P[?] (r26, vascular SOC), n participants [1] | Related TEAE Pain in extremity, n participants [1] | Related TEAE Respiratory, thoracic and m[?] disorders, n participants [1] | Related TEAE T[?], n participants [1] | Related TEAE Vascular disorders, n participants [1] | Related TEAE Ve[?], n participants [1] | Related TEAE [?] headache, n participants [1] | TEAE A[?] (r19, skin SOC), n participants [1] | TEAE A[?] (r46, GI SOC), n participants [1] | TEAE Back pain, n participants [1] | TEAE Blood and lymphatic system disorders, n participants [1] | TEAE Constipation, n participants [1] | TEAE D[?] (r54), n participants [1] | TEAE D[?] contact, n participants [1] | TEAE Dia[?], n participants [1] | TEAE Headache, n participants [1] | TEAE In[?] (r53), n participants [1] | TEAE Mu[?], n participants [1] | TEAE Musculoskeletal and connective tissue disorders, n participants [1] | TEAE My[?], n participants [1] | TEAE O[?] (r37, vascular SOC), n participants [1] | TEAE O[?] pain, n participants [1] | TEAE Pain [?], n participants [1] | TEAE R[?] (r20, skin SOC), n participants [1] | TEAE Respiratory, thoracic and [?] disorders, n participants [1] | TEAE Severity Grade 2, participants n [1] | TEAE Skin and [?] tissue [?], n participants [1] | TEAE Skin reaction, n participants [1] | TEAE Thermal [?], n participants [1] | TEAE V[?] (r24, general SOC), n participants [1] | TEAE V[?] puncture site [?] (r28), n participants [1] | TEAE Vascular access site [?] (r11), n participants [1] | TEAE Vascular access site [?] (r12), n participants [1] | TEAE Vascular access site [?] (r15), n participants [1] | TEAE Vascular disorders, n participants [1] | TEAE [?] (r13, under Injury SOC), n participants [1] | TEAE [?] (r25, general SOC), n participants [1] | TEAE [?] (r26, general SOC), n participants [1] | TEAE [?] (r38, vascular SOC), n participants [1] | TEAE [?] (r39, vascular SOC), n participants [1] | TEAE [?] (r44, nervous SOC), n participants [1] | TEAE [?] (r52, blood SOC), n participants [1] | Related TEAE Blood and lymphatic system disorders, n participants [2] | Related TEAE Co[?], n participants [2] | Related TEAE F[?], n participants [2] | Related TEAE In[?] related reaction, n participants [2] | Related TEAE Injury, poi[?] procedural complications, n participants [2] | Related TEAE M[?] and connective tissure disorders, n participants [2] | Related TEAE Myalgia, n participants [2] | Related TEAE Nervous system disorders, n participants [2] | Related TEAE O[?] (r25, vascular SOC), n participants [2] | Related TEAE O[?] (r38, respiratory SOC), n participants [2] | Related TEAE P[?] (r26, vascular SOC), n participants [2] | Related TEAE Pain in extremity, n participants [2] | Related TEAE Respiratory, thoracic and m[?] disorders, n participants [2] | Related TEAE T[?], n participants [2] | Related TEAE V[?] (r18), n participants [2] | Related TEAE Vascular disorders, n participants [2] | Related TEAE [?] headache, n participants [2] | TEAE A[?] (r19, skin SOC), n participants [2] | TEAE Abdominal pain, n participants [2] | TEAE Blood and lymphatic system disorders, n participants [2] | TEAE Constipation, n participants [2] | TEAE D[?] contact, n participants [2] | TEAE Dizziness, n participants [2] | TEAE Mu[?], n participants [2] | TEAE My[?], n participants [2] | TEAE O[?] (r37, vascular SOC), n participants [2] | TEAE O[?] pain, n participants [2] | TEAE P[?] (r43, nervous SOC), n participants [2] | TEAE Respiratory, thoracic and [?] disorders, n participants [2] | TEAE Thermal [?], n participants [2] | TEAE V[?] puncture site [?] (r27), n participants [2] | TEAE V[?] puncture site [?] (r28), n participants [2] | TEAE Vascular access site [?] (r15), n participants [2] | TEAE Vascular disorders, n participants [2] | TEAE [?] (r13, under Injury SOC), n participants [2] | TEAE [?] (r26, general SOC), n participants [2] | TEAE [?] (r38, vascular SOC), n participants [2] | TEAE [?] (r39, vascular SOC), n participants [2] | TEAE [?] (r44, nervous SOC), n participants [2] | TEAE [?] (r52, blood SOC), n participants [2] | Number of Participants Reporting at least: Onc TEAE Leading to Study Withdrawal, n (%) [3] | Number of Participants Reporting at least: One Dose-Limiting Toxicity, n (%) [3] | Number of Participants Reporting at least: One Serious TEAE, n (%) [3] | Number of Participants Reporting at least: One TEAE Leading to Study Drug Discontinuation, n (%) [3] | Number of Participants Reporting at least: One TEAE with Common Terminology Criteria for Adverse Events (CTCAE) Toxicity ≥ Grade 3, n (%) [3]
4: TEAE Injury, [?] and procedural complications, M occurrences [2]
6: TEAE Severity Grade 1, participants n [2]
1: TEAE Gastrointestinal disorders, n participants [2] | TEAE Skin reaction, n participants [2] | One Related TEAE, m [3]
50.0%: TEAE Injury, [?] and procedural complications, % participants [1] | TEAE V[?] access [?] (r10), % participants [1]
7: TEAE Participants with at least one [?], M occurrences [1] | TEAE Severity Grade 1, occurrences (M) [1] | TEAE, occurrences (M) [1] | One TEAE, m [3]
3: TEAE Injury, [?] and procedural complications, M occurrences [1] | TEAE Injury, [?] and procedural complications, n participants [1] | TEAE V[?] access [?] (r10), M occurrences [1] | TEAE V[?] access [?] (r10), n participants [1] | TEAE Injury, [?] and procedural complications, n participants [2] | TEAE Severity Grade 2, occurrences (M) [2] | TEAE Skin and [?] tissue [?], M occurrences [2]
15: TEAE, occurrences (M) [2]
100%: Participants Reporting at least One TEAE, % [2] | TEAE Severity Grade 1, participants % [2]
2: TEAE Gastrointestinal disorders, M occurrences [2] | TEAE Severity Grade 2, participants n [2] | TEAE Skin and [?] tissue [?], n participants [2] | TEAE Skin reaction, M occurrences [2]
5 (83.3%): Number of Participants Reporting at least: One TEAE, n (%) [3] | Participants With At Least 1 TEAE, n (%) [3]
1 (16.7%): Number of Participants Reporting at least: One Related TEAE, n (%) [3]
12: TEAE Severity Grade 1, occurrences (M) [2]

— US20240115654A1, “INTRAVENOUS ADMINISTRATION OF ENGINEERED ANTIMICROBIAL AMPHIPHILIC PEPTIDES” (priority 2021, published 2024)
